The series is described as follows: gradient 5% acetonitrile 3 min, to 50% in 2 min, to 85% in 15 min, held 3 min, 100 µL/min. Particulars: column: Zorbax Extend-C18 2.1 x 50 mm; eluents: water / acetonitrile, 0.1% formic acid. Put shortly:
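Using water and acetonitrile that each contained 0.1% formic acid, mixtures of ~100 pure standards were separated at 100 μL/min on a Zorbax Extend-C18 column (2.1 × 50 mm, 1.8 μm). The HPLC fed a quadrupole time-of-flight mass spectrometer working in positive and negative ionization mode, with dead and dwell volumes of 40 μL and 900 μL. Data were acquired over 3 months. Retention time was read from computationally picked adduct peaks after manual inspection of each.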
For `CCCC(=O)NC1CCN(c2ccc(C)c(C)c2)C1=O` (stereo not drawn), the RP-LC retention time was 736 s.

`Cc1ccc(Nc2c(-c3ccc(O)cc3)nc3ccc(Cl)cn23)cc1` yielded an RP-LC retention time of 696 s.

Compound `O=C(NCC(c1ccsc1)N1CCCCCC1)C(=O)Nc1ccc2c(c1)OCCO2` (stereo not drawn) displayed an RP-LC retention time of 570 s.

The compound `Cc1nn(CC(=O)N(C)Cc2ccccc2)c(=O)c2nc(-c3ccccc3)sc12` returned an RP-LC retention time of 942 s.

`CN1CCc2nnc(C3CCN(C(=O)Nc4cc(F)cc(F)c4)C3)n2CC1` (stereo not drawn) came in with an RP-LC retention time of 593 s.

With `CCCN(CC1CCOC1)S(=O)(=O)c1cc(F)ccc1C` (stereo not drawn), the RP-LC retention time came to 943 s.

For the compound `COc1ccc(OC)c(CNC(=O)C2CCCN(c3nnc4c(Cl)cccn34)C2)c1` (stereo not drawn), the RP-LC retention time stood at 722 s.

In turn, `O=C(c1cccnc1)N1CCCC(c2n[nH]c(C3CC3)n2)C1` (stereo not drawn) registered an RP-LC retention time of 486 s.

Take `CCc1ccc(CNC(=O)CN2C(=O)NC3(CCCCC3)C2=O)cc1`: the RP-LC retention time was 792 s.

For the compound `COc1cccc(NC(=O)N2CCC3(CC2)NC(=O)c2ccc(F)cc2N3C)c1`, the RP-LC retention time is 723 s.

`CCNC(=O)c1ccc(-n2nc(C)cc2-c2ccccc2)cc1` showed an RP-LC retention time of 749 s.

In turn, `COCC1CN(S(=O)(=O)c2cc(F)ccc2C)CC12CCNCC2` (stereo not drawn) had an RP-LC retention time of 641 s.

`O=C(c1nnc(-c2ccc(S(=O)(=O)N3CCCCC3)cc2)o1)N1CCCC1` registered an RP-LC retention time of 760 s.

`COc1ccc(CNC(=O)C2(C)CCN(C(=O)Nc3cc(OC)c(OC)c(OC)c3)CC2)cc1` displayed an RP-LC retention time of 733 s.

Compound `Cc1ccc(S(=O)(=O)N2CCCC(CCC(=O)NCc3ccccc3)C2)cc1` (stereo not drawn) yielded an RP-LC retention time of 960 s.

For the compound `COc1ccc(C)cc1NC(=O)CCC1CCN(c2cc(NC3CC3)ncn2)CC1`, the RP-LC retention time came out at 712 s.

Regarding `COc1ccc(NC(=O)N2CC=C(c3cn(C(C)C)c4ncccc34)CC2)cc1`, the RP-LC retention time was 858 s.

Compound `N#Cc1ccccc1NC(=O)NCC1CN(c2ccc3c(c2)OCO3)C(=O)O1` (stereo not drawn) showed an RP-LC retention time of 690 s.

`c1ccc2c3c([nH]c2c1)CNCC3` showed an RP-LC retention time of 703 s.

For the compound `CC(C)CCNC(=O)c1ccc2c(=O)n(-c3ccccc3)c(N3CCCC3)nc2c1`, the RP-LC retention time came to 858 s.

`COC(=O)c1cc(C)sc1NC(=O)CC1Sc2ccc(C(F)(F)F)cc2NC1=O` (stereo not drawn) registered an RP-LC retention time of 1030 s.

Regarding `COc1ccc(NC(=O)N(C)CCc2noc(COc3ccccc3F)n2)c(OC)c1`, the RP-LC retention time came out at 877 s.

With `COc1cc(NC(=O)C2Nc3cc(F)ccc3S(=O)(=O)N2)cc(OC)c1OC` (stereo not drawn), the RP-LC retention time came to 718 s.

With `COc1ccccc1C(=O)N1CCCC1c1c(C)noc1C` (stereo not drawn), the RP-LC retention time was 693 s.

In the case of `COc1ccc(C2Cn3cnc(C(=O)N4CCC(C(=O)NCCc5cccs5)CC4)c3CO2)cc1` (stereo not drawn), the RP-LC retention time came to 691 s.

`Cc1ccc(NS(=O)(=O)c2cc3c(s2)CCN(C(=O)C2CCC2)C3)cc1F` returned an RP-LC retention time of 911 s.

In the case of `COC(=O)c1nc(NC(=O)Cn2nc3c(cc2=O)CCCC3)sc1C(C)C`, the RP-LC retention time is 805 s.

`Cc1ccc(Cn2c(=O)c(SCC(=O)NC3CC3)nc3ccccc32)cc1` yielded an RP-LC retention time of 893 s.

In turn, `CC(=O)Nc1ccc(-c2nc(-c3cccc(-c4ccn[nH]4)c3)no2)cc1` yielded an RP-LC retention time of 790 s.

As to `O=C(NCCc1c[nH]c2ccc(Cl)cc12)c1ccc(CN2C(=O)CCn3nccc32)cc1`, the RP-LC retention time came to 768 s.

`CCNC(=O)C1CCCN(c2nc3ncn(CC(=O)NC4CCCC4)c(=O)c3s2)C1` (stereo not drawn) had an RP-LC retention time of 637 s.

With `CCCn1ncc(N2CCC(C(=O)N3CCN(C(C)=O)CC3)CC2)cc1=O`, the RP-LC retention time amounted to 591 s.

`O=C(NCCN1CCN(c2ccccc2F)CC1)C1CCCN(c2nc3cccnc3s2)C1` (stereo not drawn) displayed an RP-LC retention time of 632 s.
